Reference: the supplement of paper PMC10307832

What was measured:
Assay in all cases: relative viability (nuclei count vs DMSO), 5 days (fraction); higher = more cells survive
[1] = compound: C=CCNC1=C2C[C@@H](C)C[C@H](OC)[C@H](O)[C@@H](C)/C=C(\C)[C@H](OC(N)=O)[C@@H](OC)/C=C\C=C(/C)C(=O)NC(=CC1=O)C2=O [17-AAG] + Cc1nc(NC(=O)N2CCC[C@H]2C(N)=O)sc1-c1ccnc(C(C)(C)C(F)(F)F)c1 [Alpelisib] (partner 2 µM)
In short: (§1)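 Relative viability was taken as the ratio of nuclei in treated wells to nuclei in vehicle wells. Lung cancer cell lines in 1536-well plates received compounds by pin tool one day after seeding, either one drug alone or a fixed anchor-drug dose plus five library-drug doses (not always all listed) in √10 steps. Nuclei were counted on 4× images after 5 days of treatment, and values are medians of duplicate plates.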

[2] = compound: C=CCNC1=C2C[C@@H](C)C[C@H](OC)[C@H](O)[C@@H](C)/C=C(\C)[C@H](OC(N)=O)[C@@H](OC)/C=C\C=C(/C)C(=O)NC(=CC1=O)C2=O [17-AAG] + CS(=O)(=O)CCNCc1ccc(-c2ccc3ncnc(Nc4ccc(OCc5cccc(F)c5)c(Cl)c4)c3c2)o1 [Lapatinib] (partner 2 µM)
In short: as §1

[3] = compound: C=CCNC1=C2C[C@@H](C)C[C@H](OC)[C@H](O)[C@@H](C)/C=C(\C)[C@H](OC(N)=O)[C@@H](OC)/C=C\C=C(/C)C(=O)NC(=CC1=O)C2=O [17-AAG] + COc1cccc2cc(-c3nc([C@H]4CC[C@H](C(=O)O)CC4)n4ncnc(N)c34)[nH]c12 [OSI-027] (partner 0.5 µM)
In short: as §1

[4] = compound: C=CCNC1=C2C[C@@H](C)C[C@H](OC)[C@H](O)[C@@H](C)/C=C(\C)[C@H](OC(N)=O)[C@@H](OC)/C=C\C=C(/C)C(=O)NC(=CC1=O)C2=O [17-AAG] + C[C@]1(O)C[C@@H](c2nc(-c3ccc4ccc(-c5ccccc5)nc4c3)c3c(N)nccn32)C1 [Linsitinib] (partner 1 µM)
In short: as §1

Cell Line | relative viability ([1]; first compound 0.00128 µM) | relative viability ([1]; first compound 0.004048 µM) | relative viability ([1]; first compound 0.0128 µM) | relative viability ([1]; first compound 0.04048 µM) | relative viability ([1]; first compound 0.128 µM) | relative viability ([2]; first compound 0.00128 µM) | relative viability ([2]; first compound 0.004048 µM) | relative viability ([2]; first compound 0.0128 µM) | relative viability ([2]; first compound 0.04048 µM) | relative viability ([2]; first compound 0.128 µM) | relative viability ([3]; first compound 0.00128 µM) | relative viability ([3]; first compound 0.004048 µM) | relative viability ([3]; first compound 0.0128 µM) | relative viability ([3]; first compound 0.04048 µM) | relative viability ([3]; first compound 0.128 µM) | relative viability ([4]; first compound 0.00128 µM) | relative viability ([4]; first compound 0.004048 µM) | relative viability ([4]; first compound 0.0128 µM) | relative viability ([4]; first compound 0.04048 µM) | relative viability ([4]; first compound 0.128 µM)
COR-L 105 | 1.08 | 0.898 | 1.19 | 0.746 | 0.817 | 0.352 | 0.333 | 0.344 | 0.406 | 0.306 | 0.719 | 0.829 | 0.704 | 0.351 | 0.306 | 0.834 | 0.895 | 1 | 0.644 | 0.666
EKVX | 0.878 | 0.944 | 0.875 | 0.208 | 0.163 | 0.223 | 0.218 | 0.197 | 0.0769 | 0.12 | 0.77 | 0.649 | 0.746 | 0.177 | 0.152 | 1.12 | 1.08 | 0.873 | 0.252 | 0.122
EMC-BAC-2 | 0.836 | 0.761 | 0.754 | 0.813 | 0.381 | 0.948 | 0.948 | 0.907 | 0.777 | 0.16 | 0.464 | 0.486 | 0.438 | 0.3 | 0.216 | 0.875 | 0.772 | 0.837 | 0.803 | 0.265
EPLC-272H | 1.01 | 0.934 | 0.848 | 0.756 | 0.266 | 1.04 | 1.02 | 0.929 | 0.425 | 0.153 | 0.275 | 0.277 | 0.247 | 0.145 | 0.112 | 1.37 | 1.12 | 1.21 | 0.928 | 0.324
H3255 | 0.672 | 0.716 | 0.498 | 0.26 | 0.154 | 0.296 | 0.338 | 0.275 | 0.235 | 0.175 | 0.569 | 0.576 | 0.49 | 0.274 | 0.268 | 0.953 | 1.01 | 0.798 | 0.201 | 0.188
HARA | 0.887 | 0.967 | 0.736 | 0.828 | 0.378 | 0.694 | 0.811 | 0.692 | 0.831 | 0.325 | 0.503 | 0.56 | 0.489 | 0.151 | 0.0613 | 0.947 | 1.01 | 0.909 | 0.442 | 0.754
HCC-15 | 0.948 | 0.772 | 0.587 | 0.403 | 0.16 | 0.795 | 0.625 | 0.351 | 0.225 | 0.106 | 0.628 | 0.54 | 0.179 | 0.107 | 0.106 | 0.879 | 0.894 | 0.613 | 0.387 | 0.213
HCC-44 | 0.792 | 0.742 | 0.656 | 0.449 | 0.138 | 1.06 | 0.986 | 0.998 | 0.287 | 0.125 | 0.54 | 0.429 | 0.229 | 0.141 | 0.116 | 0.643 | 0.709 | 0.686 | 0.662 | 0.119
HCC-78 | 0.418 | – | 0.446 | 0.326 | 0.294 | 1.12 | – | 0.994 | 0.603 | 0.296 | 0.375 | 0.416 | 0.405 | 0.39 | 0.384 | 0.626 | – | 0.608 | 0.62 | 0.294
HCC-366 | 0.565 | 0.333 | 0.0236 | 0.0226 | 0.0154 | 0.858 | 0.691 | 0.0214 | 0.0204 | 0.0219 | 0.942 | 0.964 | 0.117 | 0.0472 | 0.037 | 0.52 | 0.659 | 0.0425 | 0.0221 | 0.0229
HCC-827 | 1.03 | 1.05 | 0.997 | – | 0.899 | 0.225 | 0.216 | 0.193 | – | 0.259 | 0.826 | 0.785 | 0.728 | – | 0.394 | 0.902 | 0.958 | 0.946 | – | 0.855
HOP-62 | 0.907 | 1.04 | 1.1 | 0.939 | 0.38 | 0.875 | 1.03 | 0.634 | 0.12 | 0.0921 | 0.879 | 0.806 | 0.6 | 0.44 | 0.112 | 0.783 | 0.917 | 1.08 | 0.819 | 0.455
LC-2-ad | 0.955 | 0.863 | 0.747 | 0.167 | 0.0846 | 1.01 | 0.877 | 0.548 | 0.126 | 0.0893 | 0.699 | 0.542 | 0.426 | 0.301 | 0.241 | 0.861 | 0.883 | 0.857 | 0.362 | 0.136
LCLC-97TM1 | 0.204 | 0.294 | 0.235 | 0.26 | 0.161 | 0.903 | 1.12 | 0.647 | 0.405 | 0.0945 | 0.506 | 0.575 | 0.392 | 0.241 | 0.18 | 0.192 | 0.198 | 0.211 | 0.269 | 0.182
LK-2 | 1.13 | 0.998 | 1.28 | 0.217 | 0.233 | 1.04 | 1.01 | 0.752 | 0.464 | 0.158 | 0.26 | 0.225 | 0.151 | 0.138 | 0.144 | 0.575 | 0.463 | 0.615 | 0.479 | 0.136
